{"source": "paper PMC5594493", "about": "“Antiproliferative factor (APF) binds specifically to sites within the cytoskeleton-associated protein 4 (CKAP4) extracellular domain” (BMC Biochemistry, 2017)", "test_system": "T24 bladder carcinoma cells", "experiment": "XTT cell proliferation assay, T24", "assay_type": "cell-based", "conditions": "20 nM, 96 h, serum-free, relative to vehicle/control, at least four independent times, P < 0.0001 vs control, as-APF vs APF P = 0.0103 (unpaired t-test, Welch's correction)", "method": "T24 bladder carcinoma cells (ATCC #HTB-4; Manassas, VA) were maintained in HyClone-formulated McCoy’s 5A modified media (Catalog #SH30525.01) supplemented with 10% fetal bovine serum (FBS) (Atlanta Biologicals, Flowery Branch, GA), 100 U/ml penicillin, and 100 μg/ml streptomycin (Invitrogen, Carlsbad, CA). Cell proliferation was measured using the XTT Cell Proliferation Assay Kit (ATCC). T24 cells were seeded at 1 × 10^3–4 × 10^3 per well in a 48-well plate in 300 μl/well McCoy’s supplemented medium. Cells were serum-starved for 24 h and then treated with either 20 nM APF, 20 nM as-APF, or 25 μM H2O2 (antiproliferative control) diluted in serum-free McCoy’s medium. Cells were incubated at 37 °C in a 5% CO2 atmosphere for an additional 96 h, after which 150 μl of activated–XTT solution was added to each well followed by an additional 3 h incubation. Absorbance was then measured at 475 nm and 660 nm using an M5 microplate reader (Molecular Devices, Sunnyvale, CA), and the specific absorbance was calculated. P values were assigned using unpaired t-test with Welch’s correction. The assay was repeated four independent times.", "note": "Several values for one entry are separate records, joined by “and”; a condition that tells them apart may be missing. Equal values may be shown once."}
{"substance": "Neu5Acα2 − 3Galβ1 − 3GalNAcα-O-TVPAAVVVA [APF]", "values": [{"measurement": "reduction of T24 cell proliferation", "value": "47% and 47.08 ± 12.88%"}]}
